Measurements taken from ChEMBL document CHEMBL4732067, “Synthesis and evaluation of new compounds bearing 3-(4-aminopiperidin-1-yl)methyl magnolol scaffold as anticancer agents for the treatment of non-small cell lung cancer via targeting autophagy” (Eur J Med Chem, 2021).
Active and inactive are the calls of the source. The rule behind the calls is not given here.

How the values were obtained:
A549 = assay: Antiproliferative activity against human A549 cells expressing wild type EGFR assessed as reduction in cell viability after 72 hrs by MTT assay; assay type: functional, cell-based; conditions: A549, 72 h
[1] = Metabolic stability in human liver microsomes assessed as half life; assay type: ADME, Microsome
[2] = Metabolic stability in human liver microsomes assessed as intrinsic clearance per gram protein; assay type: ADME, Microsome
[3] = Toxicity in nude BALB/c mouse xenografted with C26 cells assessed as change in body weight at 50 mg/kg, po administered once daily and measured every two days; assay type: organism-based; conditions: in vivo
NCI-H460 [4] = assay: Antitumor activity against human NCI-H460 cells xenografted in nude BABL/c mouse assessed as tumor growth inhibition at 20 mg/kg, po administered once daily and measured every two days by caliper method relative to control; assay type: functional; conditions: 48 h, read-out: TGI
NCI-H460 [5] = assay: Induction of cell cycle arrest in human NCI-H460 cells assessed as accumulation at G2/M phase at 1 uM incubated for 24 hrs by propidium iodide staining based flow cytometry (reference value: 16.71 %); assay type: functional
NCI-H460 [6] = assay: Induction of cell cycle arrest in human NCI-H460 cells assessed as accumulation at G0/G1 phase at 5 uM incubated for 24 hrs by propidium iodide staining based flow cytometry (reference value: 53.97 %); assay type: functional
NCI-H460 [7] = assay: Induction of cell cycle arrest in human NCI-H460 cells assessed as accumulation at G2/M phase at 5 uM incubated for 24 hrs by propidium iodide staining based flow cytometry (reference value: 16.71 %); assay type: functional
NCI-H460 [8] = assay: Induction of apoptosis in human NCI-H460 cells assessed as viable cells at 2 uM after 48 hrs by Annexin V-FITC/propidium iodide staining based flow cytometric analysis (reference value: 91.528 %); assay type: functional; conditions: read-out: Activity
NCI-H460 [9] = assay: Induction of apoptosis in human NCI-H460 cells assessed as late apoptotic cells at 2 uM after 48 hrs by Annexin V-FITC/propidium iodide staining based flow cytometric analysis (reference value: 3.995 %); assay type: functional
NCI-H460 [10] = assay: Induction of apoptosis in human NCI-H460 cells assessed as necrotic cells at 2 uM after 48 hrs by Annexin V-FITC/propidium iodide staining based flow cytometric analysis (reference value: 0.498 %); assay type: functional
NCI-H460 [11] = assay: Induction of apoptosis in human NCI-H460 cells assessed as early apoptotic cells at 5 uM after 48 hrs by Annexin V-FITC/propidium iodide staining based flow cytometric analysis (reference value: 3.980 %); assay type: functional
NCI-H460 [12] = assay: Induction of apoptosis in human NCI-H460 cells assessed as late apoptotic cells at 5 uM after 48 hrs by Annexin V-FITC/propidium iodide staining based flow cytometric analysis (reference value: 3.995 %); assay type: functional
NCI-H460 [13] = assay: Induction of apoptosis in human NCI-H460 cells assessed as viable cells at 10 uM after 48 hrs by Annexin V-FITC/propidium iodide staining based flow cytometric analysis (reference value: 91.528 %); assay type: functional; conditions: read-out: Activity
NCI-H460 [14] = assay: Induction of autophagy in human NCI-H460 cells assessed as degradation of SQSTM1/p62 at 0.5 to 10 uM measured after 24 hrs by Western blot analysis; assay type: functional, cell-based; conditions: dose 0.5-10 µM
NCI-H460 [15] = assay: Induction of autophagy-induced cell death in human H460 cells at 0.04 to 5 uM after 24 hrs in presence of chloroquine diphosphate by MTT assay; assay type: functional, cell-based; conditions: dose 0.04-5 µM
NCI-H460 [16] = assay: Antitumor activity against human NCI-H460 cells xenografted in nude BABL/c mouse assessed as upregulation of LC3-II expression in tumor tissue at 20 mg/kg, po administered once daily in presence of chloroquine diphosphate by Western blot analysis; assay type: functional, organism-based

- IC50 (A549): 910 nM
- half-life [1]: 158 min
- CLint [2]: 8.8 mL/min/g
Compound: C=CCc1ccc(OC(C)C)c(-c2cc(CC=C)cc(CN3CCC(N)CC3)c2O)c1
- Activity [3]: Toxic
- inhibition in vivo at 20 mg/kg (NCI-H460 [4]): 33.5%
- Activity (NCI-H460 [5]): 19.64%
- Activity (NCI-H460 [6]): 59.89%
- Activity (NCI-H460 [7]): 17.5%
- viability at 2 µM (NCI-H460 [8]): 88.8%
- Activity (NCI-H460 [9]): 4.926%
- Activity (NCI-H460 [10]): 0.874%
- Activity (NCI-H460 [11]): 30.087%
- Activity (NCI-H460 [12]): 15.76%
- viability at 10 µM (NCI-H460 [13]): 30%
- Activity (NCI-H460 [14]): Active
- Activity (NCI-H460 [15]): Active
- Activity (NCI-H460 [16]): Active
